From ChEMBL document CHEMBL1201862, “PubChem BioAssay data set” (2004)
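Interpolation was linear, between the two tested concentrations surrounding the appropriate level; five concentrations were tested over 48 hours in 96-well plates. The concentration for 50% growth inhibition is given as GI50.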 Calls of active or inactive are those of the source. Cut-off read from the data, not from the text of the source: active = GI50 up to about 1.1 µM and inactive = higher.

Experiments:
Assay in all cases: NCI tumour cell line growth inhibition, 48 h
[1] = test system: DMS-114
[2] = test system: KM-20L2
[3] = test system: LXFL 529
[4] = test system: M19-MEL
[5] = test system: XF498
[6] = test system: DLD-1
[7] = test system: HOP-18
[8] = test system: SNB-78
[9] = test system: RXF 631

SMILES | GI50 [1] | GI50 [2] | GI50 [3] | GI50 [4] | GI50 [5] | GI50 [6] | GI50 [7] | GI50 [8] | GI50 [9]
N#CCCC(C#N)(C#N)CCC#N | > 100 µM (inactive) | > 100 µM (inactive) | > 100 µM (inactive) | > 100 µM (inactive) | > 100 µM (inactive) | – | – | – | –
S=P(N1CCCC1)(N1CC1)N1CC1 | 99.5 µM (inactive) | > 100 µM (inactive) | – | > 100 µM (inactive) | > 100 µM (inactive) | > 100 µM (inactive) | > 100 µM (inactive) | > 100 µM (inactive) | –
C/C(CN1C(=O)c2ccccc2C1=O)=N\NS(=O)(=O)c1ccc(Br)cc1 | 10.9 µM (inactive) | > 100 µM (inactive) | > 100 µM (inactive) | > 100 µM (inactive) | – | > 100 µM (inactive) | > 100 µM (inactive) | > 100 µM (inactive) | –
CCC1(c2c(F)c(F)c(N)c(F)c2F)CCC(=O)NC1=O (centres undefined) | > 100 µM (inactive) | – | > 100 µM (inactive) | > 100 µM (inactive) | > 100 µM (inactive) | > 100 µM (inactive) | > 100 µM (inactive) | > 100 µM (inactive) | –
CC(C)(C)/N=C1/CC(C)(C)c2ccccc2/C(=N\c2ccccc2)S1 | 26.7 µM (inactive) | 31.8 µM (inactive) | 29.9 µM (inactive) | 36 µM (inactive) | 21.1 µM (inactive) | 26.3 µM (inactive) | – | 41.5 µM (inactive) | –
CO/S(=N/S(=O)(=O)c1ccccc1)c1ccccc1[N+](=O)[O-] (centres undefined) | – | > 100 µM (inactive) | > 100 µM (inactive) | > 100 µM (inactive) | > 100 µM (inactive) | > 100 µM (inactive) | > 100 µM (inactive) | – | > 100 µM (inactive)
CCP(C)(=O)CC | > 100 µM (inactive) | > 100 µM (inactive) | > 100 µM (inactive) | > 100 µM (inactive) | > 100 µM (inactive) | > 100 µM (inactive) | > 100 µM (inactive) | > 100 µM (inactive) | > 100 µM (inactive)
CC(C)C(Sc1nc(-c2ccccc2)c(-c2ccccc2)[nH]1)C(=O)N/N=C/c1ccc(Cl)cc1 (centres undefined) | 24.3 µM (inactive) | 20.6 µM (inactive) | 32.1 µM (inactive) | 19.4 µM (inactive) | – | 36.1 µM (inactive) | – | 28.7 µM (inactive) | –
N#CC(NNC(=O)c1ccccc1O)c1ccc(O)cc1 (centres undefined) | 2.3 µM (inactive) | 23.4 µM (inactive) | 4.06 µM (inactive) | 5.38 µM (inactive) | – | – | 9.1 µM (inactive) | – | –
O=C1C=C(Br)C(=O)C12CCc1ccccc12 (centres undefined) | 20.7 µM (inactive) | 26.7 µM (inactive) | 4.45 µM (inactive) | 19 µM (inactive) | 15.3 µM (inactive) | 9.48 µM (inactive) | 7.53 µM (inactive) | 22.6 µM (inactive) | –
NC1=NN(c2ccccc2)C(=O)C1C(=O)CCC(=O)Nc1cccc(C(F)(F)F)c1 (centres undefined) | > 100 µM (inactive) | 72.6 µM (inactive) | 36.8 µM (inactive) | > 100 µM (inactive) | – | 48.8 µM (inactive) | > 100 µM (inactive) | > 100 µM (inactive) | > 100 µM (inactive)
O=C(/C=N/O)Nc1cccc(Cl)c1I | 23.3 µM (inactive) | > 100 µM (inactive) | 25 µM (inactive) | 80.7 µM (inactive) | 46.3 µM (inactive) | 63.4 µM (inactive) | – | – | –
COc1ccc(Cc2cc(OC)c(OC)c(OC)c2)cc1 | – | 0.181 µM (active) | 0.541 µM (active) | – | – | 0.33 µM (active) | – | 3.34 µM (inactive) | –
CN(C)CC1CC/C(=C\c2ccc(O)cc2)C1=O (centres undefined) | 10 µM (inactive) | 9.55 µM (inactive) | 1.85 µM (inactive) | 2.78 µM (inactive) | 5.82 µM (inactive) | 2.58 µM (inactive) | 6.35 µM (inactive) | 11.4 µM (inactive) | –
Cc1nc2ccccc2nc1NS(=O)(=O)c1ccc(N)cc1 | – | > 100 µM (inactive) | > 100 µM (inactive) | > 100 µM (inactive) | > 100 µM (inactive) | > 100 µM (inactive) | > 100 µM (inactive) | > 100 µM (inactive) | > 100 µM (inactive)
O=c1[nH]c(=O)n(C2CC(O)C(CO)O2)cc1COCC(F)(F)F (centres undefined) | > 100 µM (inactive) | > 100 µM (inactive) | > 100 µM (inactive) | > 100 µM (inactive) | > 100 µM (inactive) | > 100 µM (inactive) | – | > 100 µM (inactive) | > 100 µM (inactive)
C#CCOCn1cnc2c(N)ncnc21 | > 100 µM (inactive) | > 100 µM (inactive) | > 100 µM (inactive) | > 100 µM (inactive) | > 100 µM (inactive) | > 100 µM (inactive) | > 100 µM (inactive) | > 100 µM (inactive) | > 100 µM (inactive)
CC1=CC2C(=O)N(c3ccccc3)C(=O)C2CC1n1[nH]c(=O)n(Cc2ccccc2)c1=O (centres undefined) | – | > 100 µM (inactive) | > 100 µM (inactive) | – | > 100 µM (inactive) | > 100 µM (inactive) | > 100 µM (inactive) | > 100 µM (inactive) | –
O=C1C[C@H]2CC3(CC[C@H]2CN1)OCCO3 | – | – | > 100 µM (inactive) | > 100 µM (inactive) | > 100 µM (inactive) | > 100 µM (inactive) | – | > 100 µM (inactive) | –
CN(CO)c1nc(N(C)CO)nc(N(C)CO)n1 [TRIMELAMOL] | – | 8.85 µM (inactive) | – | 8.04 µM (inactive) | 5.75 µM (inactive) | 10.2 µM (inactive) | 18.8 µM (inactive) | 9.77 µM (inactive) | –
NC(Cc1ccc2oc3cc(=O)c4ccccc4c-3nc2c1)C(=O)O (centres undefined) | 13.9 µM (inactive) | 39.2 µM (inactive) | 55.5 µM (inactive) | – | – | 34.8 µM (inactive) | 25.8 µM (inactive) | > 100 µM (inactive) | –
O=C(CCC(=O)Nc1ccc(Cl)c(Cl)c1)CC(=O)c1ccc(Cl)cc1 | > 100 µM (inactive) | > 100 µM (inactive) | 83.9 µM (inactive) | > 100 µM (inactive) | > 100 µM (inactive) | > 100 µM (inactive) | 80.7 µM (inactive) | – | –
O=C(c1ccc([N+](=O)[O-])cc1[N+](=O)[O-])N(/N=C/C=C/c1ccccc1)c1nnc(-c2ccccc2)c(-c2ccccc2)n1 | 29.2 µM (inactive) | > 100 µM (inactive) | – | 36.7 µM (inactive) | 17.6 µM (inactive) | 34.8 µM (inactive) | – | – | –
